Results published in ChEMBL document CHEMBL1159362, “New cytotoxic indole alkaloids from Tabernaemontana calcarea from the Madagascar rainforest” (J Nat Prod, 2003).
Converted amounts (≈) assume the structure as drawn.

tested on: A2780; test: Cytotoxicity against human A2780 cells; assay type: functional, cell-based

With `CC[C@H]1C[C@@H]2CN3CCc4c([nH]c5cc(O)ccc45)[C@](C(=O)OC)(C2)[C@H]13` as the compound, how does the IC50 read?
The IC50 was 4.8 µg/mL (≈ 13.5 µM).

`CC[C@H]1C[C@H]2C[C@H]3c4[nH]c5cc(OC)ccc5c4CCN(C2O)[C@@H]13` (mixture of isomers) was tested. Which IC50 did it give?
Its IC50 is 7.9 µg/mL.

With `COC(=O)[C@@]12C[C@@H]3C[C@H]([C@@H](C)O)[C@@H]1N(CC[C@]1(O)C2=Nc2ccc(OC)cc21)C3` as the compound, how does the IC50 read?
The IC50 was 10.8 µg/mL (≈ 27 µM).

`CC[C@H]1C[C@@H]2CN3CCc4c([nH]c5ccc(OC)cc45)[C@](C(=O)OC)(C2)[C@H]13` [VOACANGINE] was tested. Which IC50 did it give?
The IC50 was 10.4 µg/mL (≈ 28.2 µM).

How did the IC50 turn out when `COC(=O)[C@@]12C[C@@H]3C[C@H]([C@@H](C)O)[C@@H]1N(CCc1c2[nH]c2ccc(OC)cc12)C3=O` was run?
Its IC50 is 6.8 µg/mL (≈ 17.1 µM).

Which IC50 does the source give for `CC[C@H]1C[C@@H]2CN3CCc4c([nH]c5cc(OC)ccc45)[C@](C(=O)OC)(C2)[C@H]13` [ISOVOACANGINE] here?
Its IC50 is 9.4 µg/mL (≈ 25.5 µM).

Which IC50 does the source give for `C[C@H](O)[C@@H]1C[C@H]2C[C@H]3c4[nH]c5ccccc5c4CCN(C2)[C@@H]13` [HEYNEANINE] here?
The IC50 was 10.7 µg/mL (≈ 36.1 µM).

`C[C@@H](O)[C@@H]1C[C@H]2C[C@H]3c4[nH]c5ccccc5c4CCN(C2)[C@@H]13` was tested. Which IC50 did it give?
The IC50 was 8.9 µg/mL (≈ 30 µM).

`CC[C@H]1C[C@H]2C[C@H]3c4[nH]c5ccccc5c4CCN(C2)[C@@H]13` [IBOGAMINE] was tested. Which IC50 did it give?
The IC50 was 3.5 µg/mL (≈ 12.5 µM).

Which IC50 does the source give for `COC(=O)[C@@]12C[C@@H]3C[C@H]([C@H](C)O)[C@@H]1N(CCc1c2[nH]c2cc(OC)ccc12)C3` [ISOVOACRISTINE] here?
The IC50 was 9.6 µg/mL (≈ 25 µM).

With `CC[C@H]1C[C@@H]2CN3CCc4c([nH]c5ccccc45)[C@](C(=O)OC)(C2)[C@H]13` [CORONARIDINE] as the compound, how does the IC50 read?
Its IC50 is 9.9 µg/mL (≈ 29.3 µM).

`CC[C@H]1C[C@H]2CC3c4[nH]c5cc(OC)ccc5c4CCN(C2)[C@H]31` was tested. Which IC50 did it give?
The IC50 was 4.9 µg/mL (≈ 15.8 µM).

Which IC50 does the source give for `CC[C@H]1C[C@H]2C[C@H]3c4[nH]c5ccc(OC)cc5c4CCN(C2)[C@@H]13` [IBOGAINE] here?
Its IC50 is 10.2 µg/mL (≈ 32.9 µM).

`COC(=O)[C@@]12C[C@@H]3C[C@H]([C@H](C)O)[C@@H]1N(CCc1c2[nH]c2ccc(OC)cc12)C3` [VOACRISTINE] was tested. Which IC50 did it give?
Its IC50 is 11 µg/mL (≈ 28.6 µM).

With `COC(=O)[C@@]12C[C@@H]3C[C@H]([C@@H](C)O)[C@@H]1N(CCc1c2[nH]c2ccc(OC)cc12)C3` [19(R)-HEYNEANINE] as the compound, how does the IC50 read?
The IC50 was 4 µg/mL (≈ 10.4 µM).
